# Results taken from PMC11249646, “Small-Molecule Disruptors of the Interaction between Calcium- and Integrin-Binding Protein 1 and Integrin αIIbβ3 as Novel Antiplatelet Agents” (ACS Pharmacology & Translational Science, 2024).
# Target: T1, GST-CIB1 : F-scrambled peptide (Homo sapiens, UniProt Q99828)
# T1 construct: made in house; host or cells: BL-21 plus RIL cells (E. coli)
# T1 sequence (Q99828 1-191): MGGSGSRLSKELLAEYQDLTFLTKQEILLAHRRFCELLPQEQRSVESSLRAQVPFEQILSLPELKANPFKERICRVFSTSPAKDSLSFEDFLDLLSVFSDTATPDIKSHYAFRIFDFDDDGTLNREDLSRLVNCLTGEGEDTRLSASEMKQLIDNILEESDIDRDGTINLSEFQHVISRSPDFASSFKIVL
# Experiment: FP scrambled-peptide counter screen, 1536-well format
# Format: binding
# Conditions: counterscreen
row,SMILES,Efficacy (%) (counterscreen)
1,N#Cc1ccc(Nc2nc(-c3ccc(O)cc3O)cs2)cc1C(F)(F)F [NCGC00386816-01],-65
2,C=C1[C@@H](C)[C@H]2[C@H](Cc3ccccc3)NC(=O)[C@]23OC(=O)/C=C/C(=O)CCC[C@@H](C)C/C=C/[C@H]3[C@@H]1O [NCGC00388356-01],-57
3,O=C1NC(c2ccc(N3CCOCC3)cc2)(c2ccsc2)CC(O)=C1Sc1ccccc1Cl (centres unmarked) [NCGC00388532-05],-48

# The remaining lines, values ahead:
row,Efficacy (%) (counterscreen),SMILES
1,0,O=c1nc(-c2ccccn2)sc2ccccc12 [NCGC00387147-01]
2,-36,CNc1ccc([N+](=O)[O-])c(Nc2ccc3[nH]ncc3c2)n1 [NCGC00387499-01]

# Same assay, conditions: counterscreen, YES/NO
row,Confirm? (counterscreen),SMILES
1,YES,O=c1nc(-c2ccccn2)sc2ccccc12 [NCGC00387147-01]

# Same assay, conditions: counterscreen, qHTS curve class; negative sign = inhibitory curve
row,SMILES,Curve Class (counterscreen)
1,N#Cc1ccc(Nc2nc(-c3ccc(O)cc3O)cs2)cc1C(F)(F)F [NCGC00386816-01],-2.2
2,C=C1[C@@H](C)[C@H]2[C@H](Cc3ccccc3)NC(=O)[C@]23OC(=O)/C=C/C(=O)CCC[C@@H](C)C/C=C/[C@H]3[C@@H]1O [NCGC00388356-01],-1.2
3,O=C1NC(c2ccc(N3CCOCC3)cc2)(c2ccsc2)CC(O)=C1Sc1ccccc1Cl (centres unmarked) [NCGC00388532-05],-2.2

# The next lines start with the values.
row,Curve Class (counterscreen),SMILES
1,4,O=c1nc(-c2ccccn2)sc2ccccc12 [NCGC00387147-01]
2,-1.2,CNc1ccc([N+](=O)[O-])c(Nc2ccc3[nH]ncc3c2)n1 [NCGC00387499-01]

# Same assay, conditions: counterscreen; read-out: IC50 [μM] (counterscreen)
row,SMILES,IC50 [µM]
1,N#Cc1ccc(Nc2nc(-c3ccc(O)cc3O)cs2)cc1C(F)(F)F [NCGC00386816-01],28.2
2,CNc1ccc([N+](=O)[O-])c(Nc2ccc3[nH]ncc3c2)n1 [NCGC00387499-01],4
3,C=C1[C@@H](C)[C@H]2[C@H](Cc3ccccc3)NC(=O)[C@]23OC(=O)/C=C/C(=O)CCC[C@@H](C)C/C=C/[C@H]3[C@@H]1O [NCGC00388356-01],5.6
4,O=C1NC(c2ccc(N3CCOCC3)cc2)(c2ccsc2)CC(O)=C1Sc1ccccc1Cl (centres unmarked) [NCGC00388532-05],31.6

# Target: T2, CIB1 and αIIb interaction (CIB1-GST : F-αIIb peptide) (Homo sapiens, UniProt Q99828)
# T2 construct: made in house; host or cells: BL-21 plus RIL cells (E. coli)
# T2 sequence (Q99828 1-191): T1 sequence (Q99828 1-191)
# Experiment: FP assay, 1536-well qHTS format (primary and confirmatory screen)
# Format: binding
# Conditions: confirmatory screen
row,SMILES,Efficacy (%) (confirmatory screen)
1,N#Cc1ccc(Nc2nc(-c3ccc(O)cc3O)cs2)cc1C(F)(F)F [NCGC00386816-01],-72
2,C=C1[C@@H](C)[C@H]2[C@H](Cc3ccccc3)NC(=O)[C@]23OC(=O)/C=C/C(=O)CCC[C@@H](C)C/C=C/[C@H]3[C@@H]1O [NCGC00388356-01],-94
3,O=C1NC(c2ccc(N3CCOCC3)cc2)(c2ccsc2)CC(O)=C1Sc1ccccc1Cl (centres unmarked) [NCGC00388532-05],-53

# Further lines, results first:
row,Efficacy (%) (confirmatory screen),SMILES
1,-28,O=c1nc(-c2ccccn2)sc2ccccc12 [NCGC00387147-01]
2,-53,CNc1ccc([N+](=O)[O-])c(Nc2ccc3[nH]ncc3c2)n1 [NCGC00387499-01]

# Same assay, conditions: confirmatory screen, YES/NO
row,SMILES,Confirm? (confirmatory screen)
1,N#Cc1ccc(Nc2nc(-c3ccc(O)cc3O)cs2)cc1C(F)(F)F [NCGC00386816-01],YES
2,C=C1[C@@H](C)[C@H]2[C@H](Cc3ccccc3)NC(=O)[C@]23OC(=O)/C=C/C(=O)CCC[C@@H](C)C/C=C/[C@H]3[C@@H]1O [NCGC00388356-01],YES
3,O=C1NC(c2ccc(N3CCOCC3)cc2)(c2ccsc2)CC(O)=C1Sc1ccccc1Cl (centres unmarked) [NCGC00388532-05],YES

# Next, values leading:
row,Confirm? (confirmatory screen),SMILES
1,YES,O=c1nc(-c2ccccn2)sc2ccccc12 [NCGC00387147-01]
2,YES,CNc1ccc([N+](=O)[O-])c(Nc2ccc3[nH]ncc3c2)n1 [NCGC00387499-01]

# Same assay, conditions: confirmatory screen, qHTS curve class; negative sign = inhibitory curve
row,SMILES,Curve Class (confirmatory screen)
1,N#Cc1ccc(Nc2nc(-c3ccc(O)cc3O)cs2)cc1C(F)(F)F [NCGC00386816-01],-2.2
2,C=C1[C@@H](C)[C@H]2[C@H](Cc3ccccc3)NC(=O)[C@]23OC(=O)/C=C/C(=O)CCC[C@@H](C)C/C=C/[C@H]3[C@@H]1O [NCGC00388356-01],-1.1
3,O=C1NC(c2ccc(N3CCOCC3)cc2)(c2ccsc2)CC(O)=C1Sc1ccccc1Cl (centres unmarked) [NCGC00388532-05],-2.4

# Results, then the compound that gave them:
row,Curve Class (confirmatory screen),SMILES
1,-2.4,O=c1nc(-c2ccccn2)sc2ccccc12 [NCGC00387147-01]
2,-1.2,CNc1ccc([N+](=O)[O-])c(Nc2ccc3[nH]ncc3c2)n1 [NCGC00387499-01]

# Same assay, conditions: confirmatory screen; read-out: IC50 [μM] (confirmatory screen)
row,SMILES,IC50 [µM]
1,N#Cc1ccc(Nc2nc(-c3ccc(O)cc3O)cs2)cc1C(F)(F)F [NCGC00386816-01],50.1
2,C=C1[C@@H](C)[C@H]2[C@H](Cc3ccccc3)NC(=O)[C@]23OC(=O)/C=C/C(=O)CCC[C@@H](C)C/C=C/[C@H]3[C@@H]1O [NCGC00388356-01],10
3,O=C1NC(c2ccc(N3CCOCC3)cc2)(c2ccsc2)CC(O)=C1Sc1ccccc1Cl (centres unmarked) [NCGC00388532-05],44.7

# Other lines, results leading:
row,IC50 [µM],SMILES
1,44.7,O=c1nc(-c2ccccn2)sc2ccccc12 [NCGC00387147-01]
2,2.8,CNc1ccc([N+](=O)[O-])c(Nc2ccc3[nH]ncc3c2)n1 [NCGC00387499-01]

# Same assay, conditions: qHTS FP screen hits, Table S2; negative = inhibition
row,SMILES,Efficacy (%)
1,N#Cc1ccc(Nc2nc(-c3ccc(O)cc3O)cs2)cc1C(F)(F)F [NCGC00386816-01],-71
2,O=c1nc(-c2ccccn2)sc2ccccc12 [NCGC00387147-01],-72
3,CNc1ccc([N+](=O)[O-])c(Nc2ccc3[nH]ncc3c2)n1 [NCGC00387499-01],-48
4,C=C1[C@@H](C)[C@H]2[C@H](Cc3ccccc3)NC(=O)[C@]23OC(=O)/C=C/C(=O)CCC[C@@H](C)C/C=C/[C@H]3[C@@H]1O [NCGC00388356-01],-73

# Same assay, conditions: qHTS FP screen hits, Table S2; one class per curve where COUNT > 1; negative sign = inhibitory curve
row,SMILES,Curve Class
1,N#Cc1ccc(Nc2nc(-c3ccc(O)cc3O)cs2)cc1C(F)(F)F [NCGC00386816-01],-2.2
2,O=c1nc(-c2ccccn2)sc2ccccc12 [NCGC00387147-01],-1.2
3,CNc1ccc([N+](=O)[O-])c(Nc2ccc3[nH]ncc3c2)n1 [NCGC00387499-01],-1.2
4,C=C1[C@@H](C)[C@H]2[C@H](Cc3ccccc3)NC(=O)[C@]23OC(=O)/C=C/C(=O)CCC[C@@H](C)C/C=C/[C@H]3[C@@H]1O [NCGC00388356-01],-1.2

# Same assay, conditions: qHTS FP screen hits, Table S2; read-out: IC50
row,SMILES,IC50 [µM]
1,N#Cc1ccc(Nc2nc(-c3ccc(O)cc3O)cs2)cc1C(F)(F)F [NCGC00386816-01],35.5
2,O=c1nc(-c2ccccn2)sc2ccccc12 [NCGC00387147-01],28.2
3,CNc1ccc([N+](=O)[O-])c(Nc2ccc3[nH]ncc3c2)n1 [NCGC00387499-01],3.5
4,C=C1[C@@H](C)[C@H]2[C@H](Cc3ccccc3)NC(=O)[C@]23OC(=O)/C=C/C(=O)CCC[C@@H](C)C/C=C/[C@H]3[C@@H]1O [NCGC00388356-01],20

# Same assay, conditions: qHTS primary screen hits, Table S2; negative = inhibition
row,Efficacy (%),SMILES
1,-27,O=C1NC(c2ccc(N3CCOCC3)cc2)(c2ccsc2)CC(O)=C1Sc1ccccc1Cl (centres unmarked) [NCGC00388532-05]

# Same assay, conditions: qHTS primary screen hits, Table S2; negative sign = inhibitory curve; several classes where COUNT > 1
row,Curve Class,SMILES
1,-1.4,O=C1NC(c2ccc(N3CCOCC3)cc2)(c2ccsc2)CC(O)=C1Sc1ccccc1Cl (centres unmarked) [NCGC00388532-05]

# Same assay, conditions: qHTS primary screen hits, Table S2; read-out: IC50
row,IC50 [µM],SMILES
1,0.9,O=C1NC(c2ccc(N3CCOCC3)cc2)(c2ccsc2)CC(O)=C1Sc1ccccc1Cl (centres unmarked) [NCGC00388532-05]
